Data from PMC5142622, “Attenuation of the Type IV Pilus Retraction Motor Influences Neisseria gonorrhoeae Social and Infection Behavior” (mBio, 2016).

Biological target: PilT (Neisseria gonorrhoeae, UniProt Q53432)
Details: MgCl2 5 mM, Tris 150 mM pH 8.5, NaCl 150 mM, 37 °C; variable ATP, 10 min

Chain of PilT (Q53432 entry or part of it): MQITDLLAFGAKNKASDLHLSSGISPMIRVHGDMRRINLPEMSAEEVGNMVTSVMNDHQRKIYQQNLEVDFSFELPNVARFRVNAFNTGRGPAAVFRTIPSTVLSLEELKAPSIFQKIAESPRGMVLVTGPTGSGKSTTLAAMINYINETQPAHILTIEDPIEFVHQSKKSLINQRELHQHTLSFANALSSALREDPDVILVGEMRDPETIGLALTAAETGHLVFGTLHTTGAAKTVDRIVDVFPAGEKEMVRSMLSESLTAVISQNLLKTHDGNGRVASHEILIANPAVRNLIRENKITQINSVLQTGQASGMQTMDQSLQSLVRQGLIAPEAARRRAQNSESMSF

Nc1ncnc2c1ncn2[C@@H]1O[C@H](COP(=O)(O)OP(=O)(O)OP(=O)(O)O)[C@@H](O)[C@H]1O [ATP]
Km: 0.38 nmol
